In patent US5554378A, “Pharmaceutical composition and its mucosal use” (Takeda Chemical Industries, Ltd., priority 1990, dated 1996):

Key:
[1] = Blood glucose after intranasal delivery of insulin to rats; type: in vivo, Male SD rats; settings: for Glucose (% relative to glucose level before administration): intranasal, insulin 10 U/kg, mean ± SE, n = 5 (SE in parentheses)
Procedure: (§1) Male SD rats (5 per group) weighing about 220 g were fasted for 16 hours. Under pentobarbital anaesthesia, the animals were prepared for intranasal therapy according to the procedure described in International Journal of Pharmaceutics 7, 317 (1981). Then, using a micropipet, 0.1 ml/kg of an insulin solution was directly administered into the nasal cavity and the blood was serially sampled from the tail vein for determination of blood glucose and insulin concentrations.
(§2) As said insulin solution, a solution of 10U of porcine insulin (about 0.38 mg) and 0 mg-5 mg of LThB (corresponding to 5%) in 0.1 ml of isotonic buffer (pH 7.4) was used.
(§3) Insulin dose: 10 U/Kg, SD rats, 7W, .male., 220 g
*% relative to glucose level before administration (mean ± SE, n = 5)

[2] = Plasma insulin level (EIA, GLAZYME Kit) after intranasal delivery of insulin to rats; type: in vivo, Male SD rats; settings: for Insulin (plasma insulin level): insulin 10 U/kg
Procedure: as §1, §2, §3
Plasma insulin level: EIA (GLAZYME Kit, Wako)

Row | Substance | Blood glucose level on addition of LThB, compared with the control (without LThB) ([1]; intranasal with insulin, vs control without LThB) | Glucose (% relative to glucose level before administration) ([1]; 0.5 hr) | Glucose (% relative to glucose level before administration) ([1]; 1.0 hr) | Glucose (% relative to glucose level before administration) ([1]; 1.5 hr) | Glucose (% relative to glucose level before administration) ([1]; 2.0 hr) | Glucose (% relative to glucose level before administration) ([1]; 3.0 hr) | Glucose (% relative to glucose level before administration) ([1]; 4.0 hr) | Insulin (plasma insulin level) ([2]; 0.5 hr) [μU/ml] | Insulin (plasma insulin level) ([2]; 1.0 hr) [μU/ml] | Insulin (plasma insulin level) ([2]; 1.5 hr) [μU/ml] | Insulin (plasma insulin level) ([2]; 2.0 hr) [μU/ml] | Insulin (plasma insulin level) ([2]; 3.0 hr) [μU/ml] | Insulin (plasma insulin level) ([2]; 4.0 hr) [μU/ml] | Absorption of insulin from the nasal mucosa (blood insulin concentration) ([2]; with addition of LThB)
1 | LThB | marked fall of blood glucose level |  |  |  |  |  |  |  |  |  |  |  |  | 
2 | insulin, No addition: 10U of porcine insulin (about 0.38 mg) in 0.1 ml of isotonic buffer (pH 7.4), without LThB |  | 135.9 (10.5) % | 141.7 (8.6) % | 133.4 (11.2) % | 127.3 (9.1) % | 132.9 (11.4) % | 136.3 (13.5) % | 0.83 | 0.0 | 0.0 | 0.0 | 4.51 | 0.0 | effectively absorbed from the nasal mucosa
